# Measured values from US20080207505A1, “Bna Conjugates and Methods of Use” (priority 2005, published 2008).
# System: normal dogs
# Assay: Oral administration of hBNP-021 versus native hBNP in normal dogs (randomized crossover)
# Conditions: dog, oral 350 ug/kg
# Experimental: Immediately prior to oral dosing, the powder (either hBNP or hBNP conjugate) was dissolved in a buffered formulation to a concentration of 1.25 mg/mL.
# MAP and blood samplings were repeated at 10, 30, 60, 120, 180, and 240 minutes after oral administration. Blood samples were collected in pre-chilled EDTA tubes and immediately placed on ice and centrifuged at −4° C. Plasma was stored at −80° C. until analysis. After extraction, plasma cANP, cBNP, hBNP and cGMP were assessed by radioimmunoassay as previously described (Saito, Y. et al. 1989; Kambayashi, Y. et al, 1990).
# Results are expressed as mean ±SEM. Data were assessed by 1-way ANOVA for comparisons within groups followed by post hoc Dunnett's test. Two-way ANOVA was used for comparisons between groups, followed by Bonferroni posttest. Student's paired t test was performed for single comparisons between groups (Graph-Pad Prism software 4.0). Statistical significance was accepted at a value of P<0.05.
smiles,measurement,value
"CC[C@H](C)[C@@H]1NC(=O)[C@H](CCCNC(=N)N)NC(=O)[C@H](CC(=O)O)NC(=O)[C@H](CCSC)NC(=O)[C@H](CCCCN)NC(=O)[C@H](CCCNC(=N)N)NC(=O)CNC(=O)[C@H](Cc2ccccc2)NC(=O)[C@@H](NC(=O)CNC(=O)[C@H](CO)NC(=O)CNC(=O)[C@H](CCC(N)=O)NC(=O)[C@@H](NC(=O)[C@H](CCSC)NC(=O)[C@H](CCCCN)NC(=O)[C@@H]2CCCN2C(=O)[C@@H](N)CO)C(C)C)CSSC[C@@H](C(=O)N[C@@H](CCCCN)C(=O)N[C@H](C(=O)N[C@@H](CC(C)C)C(=O)N[C@@H](CCCN=C(N)N)C(=O)N[C@@H](CCCN=C(N)N)C(=O)N[C@@H](Cc2cnc[nH]2)C(=O)O)C(C)C)NC(=O)CNC(=O)[C@H](CC(C)C)NC(=O)CNC(=O)[C@H](CO)NC(=O)[C@H](CO)NC(=O)[C@H](CO)NC(=O)[C@H](CO)NC1=O [Native hBNP, reference compound]",plasma hBNP after oral administration,detected in lower levels
